Results reported in a melting point compilation (Tetko et al.; mined from patent text by program, amines drawn as free bases though some values may be those of a salt).

melting point [°C] | Structure (SMILES)
150 to 151 | CCN(CC)Cc1nc2sc3c(c2c(-c2ccc(OC)c(OC)c2)c1Cl)CCN(Cc1ccccc1)C3
187 to 188 | CC(C)(C)OC(=O)NNC(=O)c1ccnc2[nH]c(CCc3ccccc3)cc12
143 to 145 | Cc1cc(CC(=O)OC(C)(C)C)ccc1NC(=O)Nc1ccccc1
145 to 147 | CC12CCC3c4cc(C=O)c(OCc5ccccc5)cc4CCC3C1CCC2OCc1ccccc1 (stereo not drawn)
57 to 60 | CCCCNC(=O)Oc1ccc(Oc2ccccc2)cc1Br
116 | COc1cc(F)c(-c2nn(C)c(C(F)(F)F)c2Cl)cc1[N+](=O)[O-]
91 to 94 | CCCCCCCCOc1ccc2c(c1OCCCCCCCC)C(=O)c1ccccc1C2=O
88.9 to 89.1 | COc1cc(N(Cc2cccc(SC(F)(F)F)c2)C[C@@H](O)C(F)(F)F)cc(OC)c1OC
226 to 229 | CS(=O)(=O)N1CCC(NC(=O)Nc2cccc(C(F)(F)F)c2)CC1
186 to 187 | Cn1c(=O)oc2cc3c(cc21)OCC31C(=O)N(CC2CCCO2)c2ccccc21 (stereo not drawn)
88 to 90 | C#C[C@]1(C)CCc2c(C)c(OCc3ccccc3)c(C)c(C)c2O1
152 | CC(C)Nc1nc(-c2nc[nH]n2)cc(Cl)c1-c1c(F)cccc1Cl
119 to 121 | CC(=O)OC(=Cc1ccccc1)c1ccc(OC(C)=O)c(OC(C)=O)c1[N+](=O)[O-]
118 to 119 | COc1cc(CC(C)(C)NC(=O)c2ccc(Cl)nc2)cc2c1OC(C)(C)C2
237 to 241 | COc1ccc(C2Sc3cc(Cl)ccc3NC(=O)C2O)cc1 (stereo not drawn)
164 to 167 | CC(C)(C)c1cc(-c2nn(C3CCOC3=O)c3ncccc23)cc(C(C)(C)C)c1O (stereo not drawn)
258 | O=C(Nc1ncco1)c1c(C(F)(F)F)nc2c(C(F)(F)F)cccc2c1O
134 to 138 | CC(=O)c1cc2c(Sc3ccc(C)cc3)cncc2s1
118 to 120 | CC(=O)c1cc(OCC(O)COc2ccc(C#N)cc2)ccc1O (stereo not drawn)
51 to 52 | COCC(C)Oc1ccc(CSc2cnn(C(C)(C)C)c(=O)c2Cl)cc1 (stereo not drawn)
180 to 181 | CCOC(=O)c1cn(NCC=O)c2c(OCc3ccccc3)c(F)c(F)cc2c1=O
130 | COc1ccc2nc(N3CCNCC3)cc(C(F)(F)F)c2c1
258 to 260 | COc1ccc2[nH]c(C(=O)c3ccccc3)c(NC(C)=O)c2c1

melting point [°C] | Structure (SMILES)
82 to 84 | CN(C)CC1CN(Cc2ccccc2)c2ccccc2N1C=O (stereo not drawn)
144 to 145 | O=C(O)C1=Cc2cc(C(F)(F)F)ccc2OC1C(F)(F)F (stereo not drawn)
143 | Cc1ccc(Oc2ccc(-c3ccn(CC4CC4)c(=O)c3Cl)cc2F)c(C)n1
98 to 100 | CCCc1ncc2cc(OC)nc(SC)n12
126 to 128 | CCOC(=O)C(C)c1cnc(Cl)c2cc(OC)ccc12 (stereo not drawn)
159 to 163 | O=c1ccn(-c2cccc(C(F)(F)F)c2)nc1-c1ccoc1-c1ccccc1
128 to 132 | CC(C)(C)NCC(COc1cccc2c1CC(=O)N2)OC(=O)C=Cc1ccccc1 (stereo not drawn)
85 to 92 | O=C(O)c1cccc(OCCNC(=O)C2Cc3ccccc3N2S(=O)(=O)c2ccc(-c3cccc(C(F)(F)F)c3)cc2)c1 (stereo not drawn)
116 | CC(C)(C)OC(=O)C[C@H](NC(=O)CNC(=O)c1csc(NC(=O)NCc2ccccc2)n1)C(=O)Nc1ccccc1C(=O)OC(C)(C)C
126 to 128 | CC(=O)c1ccc(OCCCN2CCC(c3noc4cc(F)ccc34)CC2)c(Br)c1
137 to 138 | Cc1ccccc1C(=O)Nc1ccc(Cl)c(C(=O)OC(C)C)c1
266 to 269 | Cc1cccc(C(=O)Nc2nc(=O)c3ccccc3n2C)c1
112 | CCOC(=O)C(=CNC(C)(C)C)C(=O)c1cc(F)c(F)c(F)c1F
97 to 98 | COC(=O)c1cc2ccc(OC)cc2o1
244 | CC(C(=O)O)c1cccc(C(=O)c2cc3cc(C(=O)O)sc3s2)c1 (stereo not drawn)
221 to 223 | COc1cc(OC)c2c(=O)c(OC)c(-c3ccc(O)c(OC)c3)oc2c1
184 to 185 | CCc1nc2c(n1C(CC)CC)C(=O)N(C)CN2c1ccc(OC)cc1Cl
161 to 163 | Cc1c(NC(=O)c2ccc(-c3ccc(F)cc3)cc2)ccc2cc(CN(C)C)cnc12
168 to 169 | CNCc1ccc2cc(O)ccc2c1
154 to 157 | C=C(c1cccnc1)c1c(CC(=O)OC)[nH]c2ccccc12
92 to 93 | COCCNC(=O)c1cccc(-c2cccc3cc(Cc4cccc(N(C)C)c4)sc23)c1
176 to 178 | COc1ccc2c(c1)OC(CNCCCOc1cc3ccccc3oc1=O)CO2 (stereo not drawn)

The next lines start with the molecule.

Structure (SMILES) | melting point [°C]
CC(=O)COc1nc(N2CCCCC2)c2nc(OCC(C)=O)nc(N3CCCCC3)c2n1 | 188 to 189
O=C1c2ccccc2C(=O)N1CCCN1CCN(c2ccccc2)CC1 | 105 to 122
CC[C@@H]1N(c2ccc(C#N)c(Cl)c2C)C(=O)C[C@@]1(O)C1CC1 | 177 to 179
O=C1OC(=O)C2CC(=C(F)F)CC12 (stereo not drawn) | 140 to 145
CCC(CC)n1ncn(-c2ccc(N3CCN(c4ccc5c(=O)n([C@H](C)[C@](O)(Cn6cncn6)c6ccc(F)cc6F)cnc5c4)CC3)cc2)c1=O | 208 to 210
CCCCCCCCCCCCCCCCC(=O)Nc1ccn(C2OC(CO)C(O)C2O)c(=O)n1 (stereo not drawn) | 144 to 147
NS(=O)(=O)c1cc(C(=O)CBr)ccc1F | 125
Cc1nc(N(C)C)sc1C(=O)c1ccc(Cl)c([N+](=O)[O-])c1 | 165 to 169
CCCCCCCCCCCCCCCCNc1c(Cl)cc(C(=O)O)cc1Cl | 92 to 94
C=CCc1cc2cc(CC=C(C)C)c(=O)[nH]c2c(CC=C)c1O | 241 to 244
Nc1cc(Br)cc2cccnc12 | 142 to 145
O=C(c1ccccc1)N1CCC(Nc2ccccc2Oc2ccc(Cl)cc2Cl)CC1 | 55 to 58
CC1CCC(=NN)c2ncc(C(=O)O)c(=O)n21 (stereo not drawn) | 202 to 203
Cc1cn(C2=CCC(O)CC2)c(=O)[nH]c1=O (racemic) | 223
CCn1cc(C(=O)O)c(=O)c2cc(F)c(N3C[C@@H](N)[C@@H](C)C3)c(Cl)c21 (relative stereo) | 222 to 224
CC(=N)NC(=O)Nc1ccc(C#N)c(Cl)c1 | 182 to 183
COc1ccc(C2(C#N)CCC(=O)CC2)c2c1OC(C)(C)O2 | 153 to 154
COc1nc(C)nc(NC(=O)NS(=O)(=O)c2ccccc2CCC(F)(F)F)n1 | 157 to 158
COc1ccc2ccccc2c1C(=O)/C=C/c1ncn(C(c2ccccc2)(c2ccccc2)c2ccccc2)c1C | 220 to 222
Cc1nc(SC(=N)N)[nH]c1C | 283 to 285

Structure (SMILES) | melting point [°C]
O=c1[nH]c2cc(Br)sc2[nH]c1=O | > 300
CCOC(=O)C(=C1SC(=O)N(CC(=O)O)C1=O)c1csc(NC(C)=O)n1 | 288 to 290
CCSC1=NCC(=O)N1c1cc(Cl)ccc1C | 137 to 139
C(CCCN1CCCNC1)CCCN1CCCNC1 | 52 to 53
C=CCNc1nc(NC(=O)NC(C)(C)C)c2cc([N+](=O)[O-])ccc2n1 | 200 to 201
O=c1[nH]cnc2sccc12 | 256 to 258
Clc1nn2nnnc2c2c1CCCC2 | 109 to 110
Fc1ccc(-c2ncn(C3CCN4CCCC4C3)c2-c2ccncc2)cc1 (stereo not drawn) | 187 to 189
S=C(NN=Cc1cccc(-c2ccccc2Cl)n1)NN1CCCC1 | 187 to 188
CCCCC(CC)NC1=NS(=O)(=O)c2sc(Cl)cc2N1 (stereo not drawn) | 165 to 168
Cc1cc(Br)sc1-c1nc(-c2c(F)cccc2Cl)nn1C | 117 to 118
CC(=O)N1CCN(c2ccc(Nc3nc(N)c(C(=O)c4sccc4C)s3)cc2)CC1 | 290 to 292
CN(C)c1cc2nc(C(=O)O)c(=O)[nH]c2cc1[N+](=O)[O-] | 194 to 196
N#Cc1ccc(Oc2ccc(F)cc2)nc1 | 120 to 121
O=C(Oc1ccccc1)C1=C(O)CCn2c1nc1ccccc12 | 176 to 178
CN1CC(CCCl)Oc2cc(Cl)ccc2C1=S (stereo not drawn) | 105 to 106
CNc1cc(CC2(C)CC3C(=C(C)C(C)=C(N)C3C)O2)ccc1-c1ccn[nH]1 (stereo not drawn) | 113 to 117
CC(=O)C1CCC2C3CCC4CC(OC(=O)CI)CCC4(C)C3C(OC(=O)CI)CC12C (stereo not drawn) | 112 to 113
Cn1ccc2c(c(=NO)c1=O)C=CCC2 | 225 to 226
Cc1nn(-c2cncc(F)c2)cc1I | 87 to 88

Structure (SMILES) | melting point [°C]
C[C@@H]1CN(C(=O)OC(C)(C)C)C[C@H]2Cc3cc(F)c(CO)nc3N21 | 91 to 93
Cc1nc2ncnn2c2c1c(O)c(O)n2C | 215 to 217
O=C(c1ccc(=O)[nH]c1)n1ccnc1 | 200
CCc1c(N)c(Cl)cc(Cc2cc(Cl)c(N)c(CC)c2Cl)c1Cl | 146 to 148
OC1c2ccccc2COc2ccc(-c3nnn[nH]3)cc21 (stereo not drawn) | 335
C[C@@H](NC(=O)[C@H](Cc1ccc(OCc2ccccc2)cc1)NC(=O)[C@@H](N)COCc1ccccc1)C(=O)O | 121 to 122
O=[N+]([O-])c1cn(-c2cccnc2)nc1F | 139 to 141
COC(=O)c1cnc(N2CCNC2=O)s1 | 205 to 208
CN(C)C(=O)C1N=C(c2ccccc2)c2cc(Cl)ccc2NC1=O (stereo not drawn) | 297
Nc1ncc(-c2ccccc2-c2ncccn2)c(N)n1 | 95.1
Cc1oc(-c2ccccc2)nc1CCOc1ccc(Cn2cc(CCC(=O)O)c(-c3ccccc3)n2)cc1 | 142 to 143
O=Cc1cccn2c(Br)cnc12 | 104 to 106
Cc1cncc(-c2cncc(OC3SCC(O)C(O)C3O)c2)c1 (stereo not drawn) | 119 to 120
CN(CCO)c1nc(N)nc(-c2cc(Cl)ccc2Cl)n1 | 153 to 155
Cc1c(C)c2c(c(C)c1NC(=O)NCC(C)(C)CO)C(c1ccc(C(C)C)cc1)CO2 (stereo not drawn) | 117 to 118
Cc1cccnc1NC(=O)OC(C)(C)C | 132 to 133
CC/C(=C\C=C\C(=O)O)c1ccc(OC)cc1 | 136 to 137
CN1C(=O)C2C3C=CC(C3)C2(c2cccc(Cl)c2)C1=O (stereo not drawn) | 98 to 100
